The source of these data is article PMC3816703, “Toxicity Studies on Novel N-Substituted Bicyclo-Heptan-2-Amines at NMDA Receptors” (Pharmaceuticals, 2013).

Where two headings read alike, the source gives them in different places.

In one data set the test system is MDCK cells. The experiment in a line: MTT cell viability assay on MDCK cells (24 h treatment). In kind it is cell-based, Canine. The following applies: for IC50: Canis lupus familiaris, read-out: MTT test (IC50). How it is done: (§1) MDCK cells were used to simulate toxicities of the novel NMDA receptor uncompetitive antagonists 5a–f on BBB in vitro [18, 19]. We treated cells with 0–500 µM concentrations of test compound or memantine for 24 h. Cell viability was assessed by the capacity of cells to reduce the MTT dye (Figure 2A,B). […] It is known, that under therapeutic conditions in patients, the serum level of memantine is about 1 µM [20]. Since the binding potencies of some of the target compounds are in same range (micromolar) as that of memantine, the 1 µM concentration was used as reference in estimating possible therapeutic indexes. […] The mean percentage of viable cells was 101 ± 0.24 (p > 0.05), 95.6 ± 0.25 (p > 0.05) for memantine and 104 ± 0.11 (p > 0.05), 105 ± 0.06 (p > 0.05) for compound 5a at 10 and 50 µM, respectively, as compared to untreated cells.
(§2) Mouse Neuro-2a (CCL-131, ATCC, Manassas, VA, USA) and MDCK (CCL-34, ATCC) were used in this study. The cells were routinely propagated using Dulbecco’s Modification of Eagle’s Medium (DMEM, ATCC) for N2a and Eagle’s Minimum Essential Medium (EMEM, ATCC) for MDCK cells, supplemented with 10% fetal bovine serum (FBS, ATCC) and 1% penicillin/ streptomycin (Gibco, Grand Island, NY, USA) in 100 cm^2 Petri-dishes (Corning, Tewksbury, MA, USA) at 37 °C in 5% CO2. For neuronal differentiation, N2a cells were cultivated in DMEM supplemented with 2% FBS in the presence of 20 µM retinoic acid (RA, Sigma, St. Louis, MO, USA).
(§3) All six compounds 5a–f were obtained as salts. Stock solutions (1 mM) were prepared in double distilled water. The treatment concentrations for the compounds and for memantine (Sigma) were 10, 50, 100, 200, 300, and 500 μM. Cells were allowed to attach overnight prior to treatment. H2O2 served as positive control. Working concentrations were prepared immediately prior to treatment by dilution with medium.
(§4) The MTT (3-(4,5-dimethylthiazole-2-yl)-2,5-diphenyltetrazolium bromide) assay is a well-documented and widely-used cell viability assay. MTT is incorporated into the cell by endocytosis and is reduced by mitochondrial enzymes in living cells to a blue colored formazan precipitate. The absorbance of dissolved formazan in the visible region correlates with the number of intact alive cells. Cells were plated at a concentration of 13,000 to 20,000 cells/well on a 96-well round-bottom plate (Fisher, Pittsburgh, PA, USA). The MTT assay (ATCC, 30-1010K) was performed according to the manufacturer’s instructions. The following determinants were optimized for each cell line: plating cell concentration; incubation time with MTT reagent, and incubation time with detergent reagent. Absorbance was recorded at 570 nm by a microtiter plate reader (VICTOR, PerkinElmer, Waltham, MA, USA). The number of surviving cells is directly proportional to the level of the formazan product generated. Each experiment was repeated on three separate occasions and results are presented as the mean absorbance ± S.E.M.
(§5) The Student’s t test was applied to evaluate the significance of differences among each group. A p value of 0.05 or less was considered to be significant. Error bars in the graphs are expressed as S.E.M. with experiments performed in triplicate. IC50 values were calculated according to the SoftMax Pro GxP analytical software. Standard Curves were plotted using the OD Mean Value (Y) versus Concentration (X) and applying a 4-Parameter fit with a variable weight source curve fit option of 1/Y^2. Results are presented as mean ± S.E.M.

Another data set concerns N2a cells. The experiment in a line: MTT cell viability assay on N2a cells (24 h treatment). In kind it is cell-based, Mouse. Conditions: Mus musculus, read-out: MTT test (IC50). How it is done:
(§6) To examine neuronal cell toxicity, N2a cells were exposed to each of compounds 5a–f or memantine for 24 h at 0–500 µM concentrations, and cell viability was measured by MTT assay. In the present experiments, increasing the concentration of antagonists increased the toxicity of both test compounds and memantine in dose dependent manner (Figure 4A,B). […] No significant reduction in cell concentration was observed using phase contrast microscopy (Figure 5). The mean percentage of viable cells was 94.6 ± 0.29 (p > 0.05), 91.6 ± 0.26 (p > 0.05) for memantine and 93 ± 0.35 (p > 0.05), 77 ± 0.35 (p > 0.05) for compound 5a at 10 and 50 µM, respectively, as compared to untreated cells.
as §2, §3, §4, §5
Background: Formazan colour is commonly taken as a measure of viable cells.

Data set [1] can be described thus: MTT cell viability assay on MDCK cells (24 h treatment). In kind it is cell-based, Canine. Conditions: dog, MDCK cells, 24 h, as compared to untreated cells, read-out: mean percentage of viable cells. How it is done: as §1, §2, §3, §4, §5
Data set [2] in a line: MTT cell viability assay on N2a cells (24 h treatment). In kind it is cell-based, Mouse. Conditions: mouse, N2a cells, 24 h, as compared to untreated cells, read-out: mean percentage of viable cells. The protocol:
as §6, §2, §3, §4, §5

For the next data set, the system named is NMDA receptor. Further details: method as in PMID 21496213. Conditions: among compounds 5a–f; cited from earlier work.
Data set [3] has as its system MES (maximal electroshock)-induced neural damage. More on the design: method as in PMID 21496213. The following applies: rodents; among compounds 5a–f; cited from earlier work.
For data set [4] the following is noted: patients; cited from earlier work.
Where [5] appears, read: N2a cells, 24 h treatment, mean n = 3, concentration yielding 50% inhibition of mitochondrial enzyme activity.

For `Fc1ccc(C2(NCCN3CCOCC3)CC3CCC2C3)cc1` (centres unmarked) [5d, 2-(4-fluorophenyl)-N-(2-morpholino-ethyl)bicyclo [2.2.1]heptan-2-amine], the IC50 in the data set on MDCK cells (MDCK, 24 h) is more than 1000 µM; in the data set on N2a cells (setting [5]), more than 1000 µM.

As to `Fc1ccc(C2(NCCN3CCCCC3)CC3CCC2C3)cc1` (centres unmarked) [5b], the IC50 in the data set on MDCK cells (MDCK, 24 h) worked out at 201 µM; with N2a cells (N2a, 24 h) it was 291 µM.

As to `c1ccc(C2(NCCN3CCCC3)CC3CCC2C3)cc1` (centres unmarked) [5e, 2-phenyl-N-(2-(pyrrolidin-1-yl)ethyl) bicyclo[2.2.1]heptan-2-amine], the IC50 was 313 µM with MDCK cells (MDCK, 24 h) and 165 µM in the data set on N2a cells (N2a, 24 h).

`Fc1ccc(C2(NCCN3CCCC3)CC3CCC2C3)cc1` (centres unmarked) [5f]: the IC50 with MDCK cells (MDCK, 24 h) came out at 305 µM; in the data set on N2a cells (setting [5]), 71 µM.

For the compound `c1ccc(C2(NCCN3CCCCC3)CC3CCC2C3)cc1` (centres unmarked) [5a, 2-phenyl-N-(2-(piperidin-1-yl)ethyl)bicyclo[2.2.1]heptan-2-amine], the values for the viability at 24 h, 10 µM in data set [1] and in data set [2] were 104 ± 0.11% and 93 ± 0.35%, respectively. Moreover, the results for the viability at 24 h, 50 µM in data set [1] and in data set [2] were 105 ± 0.06% and 77 ± 0.35%, respectively. Besides, the IC50 in the data set on MDCK cells (MDCK, 24 h) was determined as 155 µM; in the data set on N2a cells (N2a, 24 h), 154 µM. For the same compound, the “affinity for NMDA receptor” value in the data set with NMDA receptor is recorded as “highest affinity”. In addition, in data set [3], the “protection from MES (maximal electroshock)-induced neural damage” value was “greatest degree of protection”.

On to `c1ccc(C2(NCCN3CCOCC3)CC3CCC2C3)cc1` (centres unmarked) [5c, N-(2-morpholinoethyl)-2-phenylbicyclo [2.2.1]heptan-2-amine], for which the IC50 came to 424 µM in the data set with MDCK cells (MDCK, 24 h) and 253 µM in the data set on N2a cells (N2a, 24 h).

On to `CC12CC3CC(C)(C1)CC(N)(C3)C2` [memantine, 1-amino-3,5-dimethyladamantine, reference compound], for which the figures for the viability at 24 h, 10 µM in data set [1] and in data set [2] were 101 ± 0.24% and 94.6 ± 0.29%, respectively. The viability at 24 h, 50 µM in data set [1] turned out to be 95.6 ± 0.25%; in data set [2], 91.6 ± 0.26%. Further, the IC50 in the data set with MDCK cells (MDCK cells, 24 h treatment, mean n = 3, concentration yielding 50% inhibition of mitochondrial enzyme activity) amounted to 197 µM; in the data set on N2a cells (setting [5]), 219 µM. Also, the “concentration above which a concentration dependent decline in numbers of viable cells occurs” value with MDCK cells (MDCK cells, 0–500 µM, 24 h, MTT) is “higher than 100 µM”. In data set [4], the “serum level under therapeutic conditions” value is given as “about 1 µM”.

By IC50 is commonly meant the point on the concentration scale where inhibition reaches its midpoint.
